According to patent US20260166159A1, “KRAS G12D DEGRADATION AGENT, AND PREPARATION METHOD AND USE THEREFOR” (LEADINGTAC PHARMACEUTICAL (SHAOXING) CO., LTD., priority 2022, published 2026):

Assays:
[1] = system: KRAS G12D mutant human lung cancer cell A427; assay: 3D cell proliferation inhibition assay, A427; assay type: cell-based; conditions: A-427, 168 h, A427, 7 days, CTG
Procedure, shortened: (§1)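 Compound dilutions are added to low-adsorption wells, then cells at 5×10^2 cells/well. Final compound range is 10000–0.026 nM, with 0.2% DMSO. After 7 days at 37 °C with 5% CO2, CTG reagent is added and luminescence is read 60 min later. IC50 is fitted from inhibition relative to DMSO and medium controls.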

[2] = molecular target: T1, KRAS-G12D (Homo sapiens, UniProt P01116, G12D); assay: KRAS-G12D degradation assay (Western Blot), AsPc-1 cells; assay type: cell-based; conditions: for DC50: 24 h; for Dmax: ASPC1, 24 h
T1 construct: endogenous in cells; host or cells: A-427 (ATCC), AGS, AsPc-1, Panc 04.03
Procedure, shortened: (§2)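 Western blotting of lysates (5 μg protein) quantified KRAS against a β-actin reference after 24 h exposure to compound at final 0.03–3000 nM in 0.25% DMSO. Cells were A-427, AGS, AsPc-1 or Panc 04.03, all KRAS G12D, at 5×10^5/well. Degradation versus control yielded DC50 and Dmax.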

[3] = molecular target: T1, KRAS-G12D; assay: KRAS-G12D degradation assay (Western Blot), AGS cells; assay type: cell-based; conditions: 24 h
Experimental: (§3) The degradation effects of the compounds on KRAS-G12D were investigated on KRAS G12D mutant human lung cancer cell A-427 (ATCC), KRAS G12D mutant human gastric cancer cell AGS, KRAS G12D mutant human metastatic pancreatic cancer cell AsPc-1, and KRAS G12D mutant human pancreatic adenocarcinoma cell Panc 04.03. The specific procedures were as follows: 0.95 mL of cells were seeded into each well of a 24-well cell culture plate to achieve a cell density of 5×10^5 cells/well; and the cell plate was incubated in an incubator at 37° C. with 5% CO2 overnight. Then 50 μL of the compound solution after dilution was added to each of the wells with the corresponding cells, so that the final concentration of the compound was in a range of 0.03-3000 nM. The final concentration of DMSO was 0.25%. After the compounds were added, the cell plate was incubated in the incubator at 37° C. with 5% CO2 for 24 h. The culture medium in the 24-well cell culture plate was removed, and the plate was washed twice with 1×PBS (KeyGEN). 120 μL of RIPA (strong) lysis buffer (Beyotime) supplemented with 1 mM phenylmethylsulfonyl fluoride, a protease inhibitor mixture (Beyotime), and a protease phosphatase inhibitor mixture (Beyotime) was added to lyse adherent A-427 cells at the bottom of the cell culture plate. After the plate was left to stand on ice for 30 min, the protein lysate in each well was transferred to a 1.5 mL centrifuge tube and centrifuged at 15000 g for 20 min at 4° C. The cell lysate supernatants after centrifugation were cryopreserved in a refrigerator at −80° C. for later use.
(§4) After the samples of the cell lysate supernatants that had been prepared were thawed from the refrigerator at −80° C., the total protein concentrations of the cell lysates were determined using a BCA protein quantification kit (Tiangen). The total protein concentrations of the samples were then adjusted to 0.5 μg/μL with PBS and 5×SDS-PAGE protein loading buffer (Beyotime), and the samples were incubated in a water bath at 100° C. for 15 min. The samples were then incubated in an ice bath for 5 min and centrifuged at 14000 g for 1 min at 4° C., and the supernatants were mixed well as loading samples for the Western Blot assay. The samples were loaded into wells of a 10% precast gel (KeyGEN) with a loading volume of 10 μL (total protein: 5 μg), a sufficient Tris-MOPS-SDS running buffer (Adamas) was added, and then electrophoresis was performed at a constant voltage of 120 V for 55 min. After the electrophoresis, the proteins on the gel were transferred to PVDF membranes at a constant current of 250 mA for 55 min. After the membrane transfer, the PVDF membranes were incubated in 1× Quick Block blocking buffer (Beyotime) at room temperature for 30 min. After the blocking, the PVDF membranes were separately incubated at 4° C. overnight with the KRAS antibody (Abcam) diluted in a ratio of 1:1000 and the […] antibody (Abcam) diluted in a ratio of 1:2000 in 5% BSA as the diluent, and then washed with 1×TBST buffer (2.4 g of Tris, 8.8 g of NaCl, 1.5 mL of Tween 20, with pH adjusted to 7.4, with the volume brought to 1 L) 3 times for 10 min/time. The membranes were incubated with a secondary antibody (Abcam) diluted in 5% BSA at room temperature for 2 h, and then washed with 1×TBST buffer 3 times for 10 min/time. Finally, the membranes were incubated with Clarity Western ECL Substrate (BIO-RAD) for 5 min for luminescence and color development, and a ChemiScope 6200 Touch chemiluminescence imaging system (Clinx) was used for color development and protein mapping. Gray value analysis of the protein maps was performed using the chemiluminescence analysis software (Clinx). The gray correction value for each sample was calculated using the formula: gray correction value=(gray value of target protein/gray value of corresponding internal reference)×10^3. Then degradation rates were calculated by comparison with the gray correction value of the control group. […]

[4] = molecular target: T1, KRAS-G12D; assay: KRAS-G12D degradation assay (Western Blot), A-427 cells; assay type: cell-based; conditions: A427 cells, 24 h; for Dmax: A-427
Procedure, shortened: as §2

[5] = system: KRAS G12D mutant human pancreatic cancer cell HPAC; assay: 3D cell proliferation inhibition assay, HPAC; assay type: cell-based; conditions: 168 h, 7 days, CTG
Procedure, shortened: as §1

[6] = system: KRAS G12D mutant human gastric cancer cell AGS; assay: 3D cell proliferation inhibition assay, AGS; assay type: cell-based; conditions: 168 h, 7 days, CTG
Procedure, shortened: as §1

[7] = molecular target: T2, Human KRAS G12D 6His-tagged (Homo sapiens, UniProt P01116, G12D); assay: KRAS-G12D/GTP binding assay (HTRF)
T2 construct: purchased PerkinElmer
Procedure, shortened: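 Compounds at 0.02-5000 nM final (0.5% DMSO) were tested for blocking GTP Red tracer binding to His-tagged KRAS G12D, detected by Eu-cryptate anti-His antibody after 1 h, 25° C. Inhibition taken from 665/620 nm ratio relative to control, then fitted to give IC50.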

[8] = molecular target: T1, KRAS-G12D; assay: KRAS-G12D degradation assay (Western Blot), Panc 04.03 cells; assay type: cell-based; conditions: 24 h
Experimental: as §3, §4

[9] = system: KRAS G12D mutant human pancreatic cancer cell Panc 04.03; assay: 3D cell proliferation inhibition assay, Panc 04.03; assay type: cell-based; conditions: 168 h, Panc 04.03, 7 days, CTG, numeric values
Procedure, shortened: as §1

[10] = system: KRAS G12D mutant human metastatic pancreatic cancer cell AsPc-1; assay: 3D cell proliferation inhibition assay, AsPc-1; assay type: cell-based; conditions: ASPC1, 168 h, AsPc-1, 7 days, CTG, numeric values
Procedure, shortened: as §1

T1 sequence (P01116 1-188 isoform P01116-2 G12D): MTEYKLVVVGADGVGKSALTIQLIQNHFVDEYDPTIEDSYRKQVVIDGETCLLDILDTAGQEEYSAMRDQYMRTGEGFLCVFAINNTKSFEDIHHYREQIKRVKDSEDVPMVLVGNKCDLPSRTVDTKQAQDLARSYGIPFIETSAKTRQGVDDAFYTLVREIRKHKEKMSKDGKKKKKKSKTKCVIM
T2 sequence (P01116 1-188 isoform P01116-2 G12D): as above

SMILES	IC50 ([1]; class symbols)	DC50 [2]	Dmax [2]	DC50 [3]	Dmax [3]	DC50 ([4]; class symbols)	Dmax ([4]; class symbols)	IC50 [5]	IC50 ([6]; class symbols)	IC50 ([7]; class symbols)	DC50 [8]	Dmax [8]	IC50 ([1]; numeric values)	IC50 [9]	IC50 [10]	DC50 ([4]; numeric values)	Dmax ([4]; numeric values)	IC50 ([6]; numeric values)	IC50 ([7]; numeric values)
C#Cc1cccc2cc(O)cc(-c3ncc4c(N5CC6CCC(C5)N6)nc(OCC5(CN6CCN(CC7CCC8(CC7)CCN(C(=O)c7ccc(C)c(N9CCC(=O)NC9=O)c7)CC8)CC6)CC5)nc4c3F)c12 [Example 55, 1-(5-(9-((4-((1-(((4-(3,8-diazabicyclo[3.2.1]octan-3-yl)-7-(8-ethynyl-3-hydroxynaphthalen-1-yl)-8-fluoropyrido[4,3-d]pyrimidin-2-yl)oxy)methyl)cyclopropyl)methyl)piperazin-1-yl)methyl)-3-azaspiro[5.5]undecane-3-carbonyl)-2-methylphenyl)dihydropyrimidine-2,4(1H,3H)-dione]	≤ 50 nM	11.1 nM	95.2%	1.91 nM	99.2%	≤ 50 nM	80 to 100%	4.28 nM	≤ 50 nM	≤ 50 nM	4.08 nM	98.6%							
Cc1ccc(C(=O)N2CCC3(CCC(CN4CCN(CC5(COc6nc(N7CC8CCC(C7)N8)c7cnc(-c8cc(O)cc(Cl)c8C8CC8)c(F)c7n6)CC5)CC4)CC3)CC2)cc1N1CCC(=O)NC1=O [Example 81, 1-(5-(9-((4-((1-(((4-(3,8-diazabicyclo[3.2.1]octan-3-yl)-7-(3-chloro-2-cyclopropyl-5-hydroxyphenyl)-8-fluoropyrido[4,3-d]pyrimidin-2-yl)oxy)methyl)cyclopropyl)methyl)piperazin-1-yl)methyl)-3-azaspiro[5.5]undecane-3-carbonyl)-2-methylphenyl)dihydropyrimidine-2,4(1H,3H)-dione]		17.8 nM	98.2%	2.99 nM	80.3%			4.37 nM					67.1 nM	27.8 nM	13 nM	16.8 nM	76.5%	5.52 nM	
C#Cc1c(F)ccc2cc(O)cc(-c3ncc4c(N5CC6CCC(C5)N6)nc(OC[C@H](C)CN5CCN(CC6CCC7(CC6)CCN(C(=O)c6ccc(OC)c(N8CCC(=O)NC8=O)c6)CC7)CC5)nc4c3F)c12 [Example 90]		1.87 nM	100%	10.6 nM	98.9%			2.44 nM					28.3 nM	8.82 nM	1.19 nM	0.86 nM	95.6%	0.65 nM	
[2H]C([2H])([2H])c1ccc(C(=O)N2CCC3(CCC(CN4CCN(C[C@@H](C)COc5nc(N6CC7CCC(C6)N7)c6cnc(-c7cc(O)cc8ccc(F)c(C#C)c78)c(F)c6n5)CC4)CC3)CC2)cc1N1CCC(=O)NC1=O [Example 109, 1-(5-(9-((4-((R)-3-((4-(3,8-diazabicyclo[3.2.1]octan-3-yl)-7-(8-ethynyl-7-fluoro-3-hydroxynaphthalen-1-yl)-8-fluoropyrido[4,3-d]pyrimidin-2-yl)oxy)-2-methylpropyl)piperazin-1-yl)methyl)-3-azaspiro[5.5]undecane-3-carbonyl)-2-(methyl-d3)phenyl)dihydropyrimidine-2,4(1H,3H)-dione]		0.64 nM	98.8%	4.8 nM	94.5%			1.62 nM						6.73 nM	1.42 nM			3.98 nM	
C#Cc1c(F)ccc2cc(O)cc(-c3ccc4c(N5CC6CCC(C5)N6)nc(OCC(C)CN5CCN(CC6CCC7(CC6)CCN(C(=O)c6ccc(C)c(N8CCC(=O)NC8=O)c6)CC7)CC5)nc4c3F)c12 (stereo not drawn) [Example 174, 1-(5-(9-((4-(3-((4-(3,8-diazabicyclo[3.2.1]octan-3-yl)-7-(8-ethynyl-7-fluoro-3-hydroxynaphthalen-1-yl)-8-fluoroquinazolin-2-yl)oxy)-2-methylpropyl)piperazin-1-yl)methyl)-3-azaspiro[5.5]undecane-3-carbonyl)-2-methylphenyl)dihydropyrimidine-2,4(1H,3H)-dione]		13.6 nM	100%					1.78 nM					64.2 nM	31.3 nM	62.5 nM			19.4 nM	5.19 nM
C#Cc1c(F)ccc2cc(O)cc(-c3ncc4c(N5CC6CCC(C5)N6)nc(OCC5(CN6CCN(CC7CCC8(CC7)CCN(C(=O)c7ccc(CC)c(N9CCC(=O)NC9=O)c7)CC8)CC6)CC5)nc4c3F)c12 [Example 243, 1-(5-(9-((4-((1-(((4-(3,8-diazabicyclo[3.2.1]octan-3-yl)-7-(8-ethynyl-7-fluoro-3-hydroxynaphthalen-1-yl)-8-fluoropyrido[4,3-d]pyrimidin-2-yl)oxy)methyl)cyclopropyl)methyl)piperazin-1-yl)methyl)-3-azaspiro[5.5]undecane-3-carbonyl)-2-ethylphenyl)dihydropyrimidine-2,4(1H,3H)-dione]								0.61 nM					121 nM	21.7 nM	2.34 nM	1.66 nM	92.9%	2.16 nM	
[2H]C([2H])([2H])Oc1ccc(C(=O)N2CCC3(CCC(CN4CCN(C[C@@H](C)COc5nc(N6CC7CCC(C6)N7)c6cnc(-c7cc(O)cc8ccc(F)c(C#C)c78)c(F)c6n5)CC4)CC3)CC2)cc1N1CCC(=O)NC1=O [Example 253, 1-(5-(9-((4-((R)-3-((4-(3,8-diazabicyclo[3.2.1]octan-3-yl)-7-(8-ethynyl-7-fluoro-3-hydroxynaphthalen-1-yl)-8-fluoropyrido[4,3-d]pyrimidin-2-yl)oxy)-2-methylpropyl)piperazin-1-yl)methyl)-3-azaspiro[5.5]undecane-3-carbonyl)-2-(methoxy-d3)phenyl)dihydropyrimidine-2,4(1H,3H)-dione]		1.39 nM	100%					10.6 nM						18.8 nM	1.59 nM			3.92 nM	
